The subject of series [1] is MALAT1 mRNA. The series is described as follows: Dose dependent antisense inhibition of MALAT1 in WT HEK293 cells. The settings on record: approximately 24 hrs, qRT-PCR normalized to RPLP0. The format is cell-based, human.
Series [2] deals with MALAT-1. The series can be described thus: Dose-dependent reduction of MALAT-1 expression in LVX-GLP1R cells. It is filed as cell-based, human. The settings on record: approximately 24 hours; read-out: IC50 (MALAT-1 expression in GLP1R HEK cells). As for the experimental part:
HEK cells stably expressing FLAG-tagged GLP1R were generated by infecting HEK 293 cells with FLAG-tagged GLP1R containing lentivirus produced by transfection of 293T cells with pLVX-IRES-Puro (Clontech Laboratories Inc., Mountainview, CA) harboring the FLAG-GLP1R insert. Infected cells were selected with puromycin (2 μg/ml) and then analyzed for receptor expression by western blot and immunofluorescence. Cultured GLP1R cells were plated at a density of 10,000 cells per well and treated with 0.3, 1, 3, 9, 27, 82, 247, 741, 2,222, 6,667, and 20,000 nM modified oligonucleotide for approximately 24 hours. After the treatment period, total RNA was prepared using an RNeasy mini kit (Qiagen, Valencia, CA, USA) and qRT-PCR was performed using the primer probe set RTS2739 (forward sequence: […] (SEQ ID NO: 74), reverse sequence: […] (SEQ ID NO: 75), probe sequence: […] (SEQ ID NO: 76). Briefly, ˜50 ng total RNA in 5 d water was mixed with 0.3 d primer probe sets containing forward and reverse primers (10 μM of each) and fluorescently labeled probe (3 μM), 0.3 W RT enzyme mix (Qiagen), 4.4 d RNase-free water, and 10 d of 2×PCR reaction buffer in a 20 d reaction. Reverse transcription was performed at 48° C. for 10 min, 40 cycles of PCR were conducted at 94° C. for 20 s, and 60° C. for 20 s within each cycle, using StepOne Plus RT-PCR system (Applied Biosystems, Phoenix, AZ, USA). The mRNA levels were normalized to the amount of total RNA present in each reaction as determined by Ribogreen assay (Life Technologies) and normalized to the saline control (100% expression).

In series [3] the test system is MALAT1. The series is described as follows: In situ hybridization of MALAT1 (QuantiGene ViewRNA) in mouse tissues after intravenous ASO. The format is in vivo. The text has this: NO: 63) or a GLP-1 conjugated MALAT1 ASO (ISIS 816385) described in Example 1 at concentrations of 1.8. 0.6, or 0.2 μmol/kg. […] MALAT1 expression was detected using the QuantiGene ViewRNA tissue assay (Affymetrix, cat. No. QVT0011). Species-specific MALAT1 probes were purchased from Affymetrix (cat. No. VB-11110-01/mouse; VF1-13963/monkey). In brief, mouse tissues were fixed in 10% neutral-buffered formalin and embedded into paraffin and sectioned into […]. After deparaffinization, the tissue slides were boiled in Affymetrix pretreatment solution for 10-30 minutes followed by treatment with protease at 40° C. for 10 to 40 minutes depending on tissue. The MALAT1 RNA probe was used at a 1:40 dilution and was incubated with sample at 40° C. for 120 minutes. After washing, the MALAT1 RNA/probe complex was hybridized with preamplifier, amplifier, and AP-oligonucleotides at 40° C. for 25, 15, and 15 minutes, respectively. After removal of free AP oligonucleotide by washing in PBS, the slide was incubated with Fast Red substrate at room temperature for 30 minutes. The tissue images were acquired using an Aperio scanner. Hung et al., 2013 Nuc Acid Ther. 369-78. To determine a dose response of a GLP-1 conjugated MALAT1 ASO (ISIS 816385) described in Example 1 on pancreatic MALAT1 expression, male C57BL/6 mice fed a chow diet received a single intravenous injection of ISIS 816385 or an unconjugated MALAT1 ASO (ISIS 556089) described above at concentrations of 0.2, 0.06, and 0.02 μmol/kg. MALAT1 expression was detected using the QuantiGene ViewRNA tissue assay described above.

Series [4] deals with MALAT1. The series can be described thus: MALAT1 in situ hybridization in beta islet cells after i.v. GLP-1 ASO conjugates with various linkers. The settings on record: male C57BL/6 mice; intravenous 0.6 μmol/kg/week once a week for three weeks; 72 hours after final injection. The format is in vivo, mouse.
Series [5] has as its system MALAT1 mRNA. The series is described as follows: MALAT1 mRNA in isolated islets and liver 72 hrs after single subcutaneous dose. The format is in vivo, mouse. The settings on record: single subcutaneous injection 0.01, 0.1 or 1 μmol/kg. The protocol: (§1) Pancreatic islets were isolated by collagenase digestion from pancreas collected from exsanguinated 12 to 15 weeks old female C57BL/6Crl mice. Islets were maintained in tissue culture until use. Islet were dissociated into single cells by shaking in media containing a low extracellular calcium concentration. 10 to 20 intact or dissociated islets were plated on plastic Petri Dishes and treated with 10 μM of antisense oligonucleotides for approximately 24 hrs. After the treatment period cells were harvested, RNA isolated, adjusted to total RNA content, as measured by RIBOGREEN®. MALAT1 or FOXO1 mRNA levels measured by quantitative real-time PCR. Mouse Malat1 mRNA levels was measured using gene expression assay Mm01227912_s1 from Applied Biosystems, whereas mouse FOXO1 mRNA levels was measured using a primer probe set with forward sequence […] All data was normalized to the mRNA level of the house keeping gene (RPLP0) in the same sample, measured using a primer probe set with forward sequence […]
(§2) All animals were sacrificed 72 hrs after last dose.

The test system of series [6] is MALAT1 mRNA. The series can be described thus: Dose dependent antisense inhibition of MALAT1 in hGLP1R-HEK cells. The format is cell-based, human. The settings on record: approximately 24 hrs, qRT-PCR normalized to RPLP0. The protocol: The hGLP1R-HEK cell line was generated by expressing hGLP1R in Flp-IN™ 293 cells. Cultured hGLP1R-HEK cells were seeded at a density 30,000 cells per well in 96 well plates and saline, 100 nM or 10 μM of unconjugated parent antisense oligonucleotide ISIS 556089 targeted to MALAT1 described above or ISIS 776102 (nucleobase sequence: […]) (SEQ ID NO: 64) targeted to FOXO1, or corresponding GLP-1 peptide conjugated antisense oligonucleotides (ISIS 816385 targeted to MALAT1 described above or ION 913193 targeted to FOXO1 described above) for approximately 24 hrs. After the treatment period, cells were harvested, the mRNA isolated and adjusted to total RNA content as measured by nanadrop UV-Vis spectrophotometer. MALAT1 or FOXO1 mRNA levels were measured by quantitative real-time PCR and normalized to the mRNA levels of the house keeping gene (RPLP0) in the same samples. Human MALAT1 mRNA levels were measured using gene expression assays HS00273907 and FOXO1 mRNA levels were measured using assay Hs01054576 (Applied Biosystems). The mRNA level of the house keeping gene RPLP0 was measured using a primer probe set with forward sequence […] CAT […] (SEQ ID NO: 66), reverse sequence […] (SEQ ID NO: 67). […]
After the treatment period cells were harvested, mRNA isolated and MALAT1 mRNA levels measured by quantitative real-time PCR using the primer probe set as described herein (Example 7). […]

The test system of series [7] is MALAT1. The series is described as follows: MALAT1 expression in pancreas by in situ hybridization (RNAscope). The format is in vivo, mouse. To be noted: 2 μmol/kg; subcutaneous or intravenous (ISIS 556089 subcutaneous only); 72 hrs after last dose. The source says: Female C57BL/6Crl mice were assigned to five treatment groups. […] All animals were sacrificed approximately 72 hrs after last dose, and pancreas harvested for ex vivo analysis of uptake of antisense oligonucleotides by immunohistochemistry.
Female C57BL/6Crl mice were assigned to five treatment groups as described herein (Example 11) All animals were sacrificed approximately 72 hrs after last dose, and pancreas harvested for ex vivo analysis of MALAT1 expression by in situ hybridization.
The in situ mRNA amplification and labelling process was performed on the Ventana Discovery ULTRA, an Automated ISH platform(Ventana Medical System, Inc) using the RNAscope® VS Assay based on Advanced Cell Diagnostics (ACD). Customized probes were obtained from ACD for the detection of MALAT1 mRNA, and various parameters were tested to optimize the novel RNAscope method for ISH. The signal was amplified using multiple steps, followed by labeled probes and detected using the RNAscope® 2.5 VS Reagent Kit-RED. Stained slides were analyzed under a standard bright-field microscope.

The subject of series [8] is MALAT1. The series can be described thus: Effect of peptide composition and attachment point on peptide-conjugated ASO activity in LVX-GLP1R cells. The settings on record: 7 doses in a 4-fold dilution series, MALAT1 RNA. The format is cell-based, human.
Series [9] concerns FOXO1 mRNA. The series can be described thus: FOXO1 mRNA in isolated islets and liver 72 hrs after single subcutaneous dose. The format is in vivo, mouse. To be noted: single subcutaneous injection 0.01 or 1 μmol/kg. The protocol:
as §1, §2

Series [10] has as its system FOXO1 mRNA. The series is described as follows: FOXO1 mRNA in isolated islets and liver after 6 weeks repeated administration to ob/ob mice. The format is in vivo, mouse. The settings on record: male ob/ob mice; 0.1 μmol/kg once weekly for 6 weeks; 120 hrs after last dose. As for the experimental part:
Pancreatic islets were isolated by collagenase digestion from pancreas collected from exsanguinated 12 to 15 weeks old female C57BL/6Crl mice. Islets were maintained in tissue culture until use. Islet were dissociated into single cells by shaking in media containing a low extracellular calcium concentration. 10 to 20 intact or dissociated islets were plated on plastic Petri Dishes and treated with 10 μM of antisense oligonucleotides for approximately 24 hrs. After the treatment period cells were harvested, RNA isolated, adjusted to total RNA content, as measured by RIBOGREEN®. MALAT1 or FOXO1 mRNA levels measured by quantitative real-time PCR. […] All data was normalized to the mRNA level of the house keeping gene (RPLP0) in the same sample, measured using a primer probe set with forward sequence […] NO: 71), reverse sequence […] NO: 72) and probe sequence […] NO: 73). Male ob/ob mice (B6.V-Lepob/OlaHsd, Harlan) were assigned to five treatment groups receiving either vehicle, 0.1 μmol/kg ISIS 776102, 0.1 μmol/kg ION 913195, 0.03 ION 913193 or 1 μmol/kg ION 913193. All animals were treated once weekly for 6 weeks. Approximately 120 hrs after last dose all animals were sacrificed, liver samples collected and pancreatic islets isolated, as described herein (Example 9), for mRNA analysis. FOXO1 mRNA levels were quantified as described herein (Example 9) and mRNA levels expressed relative to housekeeping gene in each sample (RPLP0).

The subject of series [11] is FOXO1 mRNA. The series can be described thus: FOXO1 mRNA in cultured mouse primary islets of Langerhans treated with ASO. The format is cell-based. The settings on record: for Islet FOXO1 mRNA levels relative to control (RPLP0): percent of untreated cells, 1 μM ASO 3 hrs every 24 hrs. The protocol:
Pancreatic islets were isolated by collagenase digestion from pancreas collected from exsanguinated 12 to 15 weeks old female C57BL/6Crl mice. Islets were maintained in tissue culture until use. Islet were dissociated into single cells by shaking in media containing a low extracellular calcium concentration. 10 to 20 intact or dissociated islets were plated on plastic Petri Dishes and treated with 10 μM of antisense oligonucleotides for approximately 24 hrs. After the treatment period cells were harvested, RNA isolated, adjusted to total RNA content, as measured by RIBOGREEN®. MALAT1 or FOXO1 mRNA levels measured by quantitative real-time PCR. […] All data was normalized to the mRNA level of the house keeping gene (RPLP0) in the same sample, measured using a primer probe set with forward sequence […] NO: 71), reverse sequence […] NO: 72) and probe sequence […] NO: 73). Pancreatic islets were isolated by collagenase digestion from pancreas collected from euthanized 12 to 15 weeks old female B6.Cg-Lepob/J mice and maintained in tissue culture until use. 150 intact islets were placed in plastic Petri Dishes and treated with 1 μM of antisense oligonucleotides for 3 hrs every 24 hrs and harvested after approximately 24 hrs, 48 hrs or 96 hrs total treatment time respectively. After the treatment period, islets were harvested, and half of the islets were used to measure FOXO1 mRNA levels as described herein (Example 9). Half of the islets were homogenized in M-PER protein extraction reagent (Thermo Scientific) containing a protease inhibitor cocktail (Complete Mini and phosphoSTOP, Roche Diagnostics). The protein content of lysates were quantitated using BCA Assay Reagent (Pierce). […] For the anti-FoxO1 antibody, the secondary antibody was HRP-conjugated polyclonal goat anti-Rabbit P0448 (DAKO) and for the anti-α-tubulin antibody, the secondary antibody was HRP-conjugated polyclonal goat anti-mouse P0447 (DAKO). Enhanced chemiluminescence reagents (Pierce) were used for detection.

The values below come from US20240293563A1, “GLP-1 RECEPTOR LIGAND MOIETY CONJUGATED OLIGONUCLEOTIDES AND USES THEREOF” (priority 2017, published 2024).

k = constrained ethyl (cEt); d = 2'-deoxy (DNA)

As for “ISIS 556089: unconjugated parent 3-10-3 cEt ASO targeting murine MALAT1, nucleobase sequence GCATTCTAATAGCAGC (SEQ ID NO: 63) (sugars from the 5' end k3 d10 k3, backbone and methylation of C not given here) [reference compound]”, the IC50 in [1] was 740 nM; in [2] it was 3970 nM; in series [6], 870 nM; in [8], 3820 nM. Further, in series [3] (Study 2, single intravenous injection, any of the doses 0.2, 0.06, 0.02 μmol/kg), the “effect in liver (MALAT1 in situ hybridization)” value is reported as “No observable effect”. Also, the “MALAT1 expression in pancreatic beta islet cells (in situ hybridization)” value in series [3] (male C57BL/6 mice, 2 intravenous injections of 1.8, 0.6 or 0.2 μmol/kg, 72 hours after final injection) is on record as “not”. The “MALAT1 expression in beta islet cells compared to saline control (in situ hybridization)” value in [4] is “not”. Moreover, the “antisense inhibition of MALAT1 in islet of Langerhans” value in [5] was “No significant antisense inhibition”. In addition, in [7], the “MALAT1 expression in the pancreatic islet of Langerhans” value is “not reduced”.

“ISIS 776102: unconjugated parent antisense oligonucleotide targeted to FOXO1, nucleobase sequence TCTTCTTAAAATACCC (SEQ ID NO: 64) (listed as DNA, further chemistry not given here) [reference compound]”: the “antisense inhibition of FOXO1 in islet of Langerhans” value in [9] and in [10] was “No significant antisense inhibition” throughout. Further, the “reduction in FOXO1 mRNA” value in [11] (mouse islets, 1 μM ASO, summary of Table 2) is “marginal reduction”. Also, the results for the “Islet FOXO1 mRNA levels relative to control (RPLP0)” value in series [11] (24 hours), in series [11] (48 hours) and in [11] (96 hours) were 82%, 86% and 92%, respectively.
